Experimental data as given in PMC8691691 (ACS Chemical Neuroscience, 2021).
Where a chain is given by its changes, count along the chain named. Read-outs that look alike come from different tables or passages of the source.

Tests used:
Test in all cases: [3H]glycine transport by GlyT2 mutant in COS7 cells
Format in all cases: cell-based
GlyT2 L576I mutant = biological target: T1, GlyT2 L576I mutant (Rattus norvegicus, UniProt P58295, L576I); settings: for IC50: read-out: IC50 (Table S1)
T1 construct: expressed in transfected cells; host or cells: COS7
T1 sequence (P58295 1-799 L576I): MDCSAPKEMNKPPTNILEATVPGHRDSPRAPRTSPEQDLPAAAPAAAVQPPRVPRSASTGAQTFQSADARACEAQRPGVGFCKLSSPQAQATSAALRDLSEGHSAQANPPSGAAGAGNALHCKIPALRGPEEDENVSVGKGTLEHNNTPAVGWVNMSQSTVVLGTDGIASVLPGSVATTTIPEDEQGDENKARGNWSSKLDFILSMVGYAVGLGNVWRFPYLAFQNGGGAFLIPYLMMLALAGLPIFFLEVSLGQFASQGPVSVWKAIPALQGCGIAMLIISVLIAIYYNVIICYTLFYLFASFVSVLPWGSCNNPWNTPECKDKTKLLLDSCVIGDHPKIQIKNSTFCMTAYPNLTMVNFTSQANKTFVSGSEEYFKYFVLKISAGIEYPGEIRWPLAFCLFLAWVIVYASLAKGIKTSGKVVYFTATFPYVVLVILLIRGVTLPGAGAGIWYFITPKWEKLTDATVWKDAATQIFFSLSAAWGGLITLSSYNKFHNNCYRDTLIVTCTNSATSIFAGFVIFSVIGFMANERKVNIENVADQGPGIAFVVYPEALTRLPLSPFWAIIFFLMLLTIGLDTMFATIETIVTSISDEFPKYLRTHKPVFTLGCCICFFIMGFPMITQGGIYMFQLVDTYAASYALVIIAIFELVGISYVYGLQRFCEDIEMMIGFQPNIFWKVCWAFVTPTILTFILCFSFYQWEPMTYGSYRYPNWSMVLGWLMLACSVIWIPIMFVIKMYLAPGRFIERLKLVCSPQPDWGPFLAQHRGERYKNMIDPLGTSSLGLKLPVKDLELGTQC
Excerpt: (§1) To validate the predicted interactions between the inhibitors and GlyT2, we used systematic site-directed mutagenesis to construct substitution mutants of the potential residues involved in ligand binding. […] The GlyT2 residues predicted to interact with the inhibitors through its side chain were replaced by amino acids expected to force the loss of the interaction. In the cases where the interaction occurred through the backbone, the inserted amino acid sought to alter the disposition of the substituted residue to lose the coordination.
(§2) Substitution mutants were generated with the QuikChange II Site-Directed Mutagenesis kit (Agilent Technologies, Santa Clara, CA, USA), using rGlyT2 or rGlyT1 subcloned in pCDNA3.[47] The complete coding region of all of the constructs was sequenced to verify that only the desired mutation had been introduced. […] COS7 cells were grown and transfected using Turbofect Transfection Reagent (Thermo Fisher Scientific, Waltham, MA, USA), following the manufacturer’s protocol (2 μL reagent/μg of DNA). Cells were incubated for 48 h at 37 °C until used.
(§3) At the end of the desired time (usually 10 min), reactions were washed and terminated by aspiration. […] A nonlinear curve fitting method was used to obtain IC50 values using Graphpad Prism software, version 6.0, Graphpad, San Diego, CA, USA.

GlyT2 F478Y mutant = biological target: T2, GlyT2 F478Y mutant (Rattus norvegicus, UniProt P58295, F478Y)
T2 construct: expressed in transfected cells; host or cells: COS7
T2 sequence (P58295 1-799 F478Y): T1 sequence (P58295 1-799 L576I) with F478Y, I576L
Excerpt: as §1, §2, §3

GlyT2 S640C mutant = biological target: T3, GlyT2 S640C mutant (Rattus norvegicus, UniProt P58295, S640C); settings: read-out: IC50 (Table S1)
T3 construct: expressed in transfected cells; host or cells: COS7
T3 sequence (P58295 1-799 S640C): T1 sequence (P58295 1-799 L576I) with I576L, S640C
Excerpt: as §1, §2, §3

Compound | effect of mutation on inhibition of glycine transport (GlyT2 L576I mutant; L576I, 1 μM inhibitor, 25 μM glycine) | IC50 (GlyT2 L576I mutant) | IC50 (GlyT2 F478Y mutant; read-out: IC50 (Table S1)) | IC50 (GlyT2 S640C mutant) | IC50 (GlyT2 F478Y mutant)
N[C@@H](COC(c1cccc(F)c1)c1ccccc1OCc1ccccc1)C(=O)O (stereo partly shown) [ALX1393] | prevented the inhibition by ALX1393 to a greater extent than that of ORG25543 | 101 ± 22 nM | 50 ± 5 nM | 30 ± 7 nM | 
COc1cc(C(=O)NCC2(N(C)C)CCCC2)cc(OC)c1OCc1ccccc1 [ORG25543, N-[[1-(dimethylamino)cyclopentyl]methyl]-3,5-dimethoxy-4-(phenylmethoxy)benzamide] |  | 111 ± 15 nM |  | 130 ± 6 nM | 19 ± 7 nM
